25 compounds from US9783496B2, “Oxindole compounds, solvent-free synthesis and use thereof” (Council of Scientific & Industrial Research, priority 2013, dated 2017) can be followed below.

In the test the test system is M. smegmatis MC^2 155 strain. The test can be described thus: Antitubercular activity: growth inhibition of M. smegmatis in 96 well microtiter plate (absorbance at 600 nm). In kind it is cell-based, Mycobacterium smegmatis. The note with it: Mycolicibacterium smegmatis, MC^2155, final concentration of compound 30 μM, 32 hrs, determined against DMSO, triplicate, read-out: Percentage inhibition. The method, then: The compounds were tested for their Anti Mycobacterial ability on M. smegmatis MC^2 155 strain. The series of compounds were obtained in 10 mM stock concentrations. Further, each compound was diluted with the required 100% (v/v) DMSO to achieve a working concentration of 1.5 mM. The inoculum for the assay was prepared by reviving a glycerol stock in Middlebrook 7H9 broth supplemented with 0.1% Tween 80 and 0.5% Glycerol. At the time of inoculation, 10% ADS was added to the media and the culture was incubated in a shaker incubator at 37° C. and 200 rpm. The O.D. of the inoculum reached to 0.8-1 approximately, a secondary inoculum was inoculated and subsequently incubated. This was incubated overnight till the O.D. of the inoculum reached 0.4 approx., following which the inoculum was diluted 1:1000 times. In a 96 well microtiter plate, a 2 μL aliquot of the 1.5 mM dilution of compound was added to each well in triplicate, to which 98 μL of inoculum dilution was added, making the final concentration of compound 30 μM. To each plate a set of controls was added to better ascertain the activity of the compounds. These included DMSO, which was taken as a growth control, and media control (Blank) and Rifampicin and Isoniazid, which were taken as positive controls of inhibition of Mycobacterium smegmatis. After the completion of the period of 32 hrs, the absorbance of the inoculum in wells was measured at 600 nm using a Multi Mode Reader. Absorbance is considered directly proportional to the increase in growth of bacteria, thus it gives a measure of the growth of bacteria in each well. Percentage inhibition was determined against DMSO.

Take `CCOC(=O)CNC(=O)C1(OC(=O)c2ccccc2)C(=O)N(C)c2ccccc21` (stereo not shown): the inhibition at 30 µM came out at 14.7%.

Take `CC(C)(C)NC(=O)C1(OC(=O)c2ccccc2)C(=O)Nc2ccccc21` (stereo not shown) [Compound 4s, 3-(tert-Butylcarbamoyl)-2-oxoindolin-3-yl benzoate]: the inhibition at 30 µM came to 19.1%.

As to `CN1C(=O)C(OC(=O)c2cccs2)(C(=O)NC(C)(C)C)c2ccccc21` (stereo not shown) [Compound 4i, 3-(tert-Butylcarbamoyl)-1-methyl-2-oxoindolin-3-yl thiophene-2-carboxylate], the inhibition at 30 µM was determined as 30.8%.

On to `CN1C(=O)C(OC(=O)c2ccccc2)(C(=O)NC2CCCCC2)c2ccccc21` (stereo not shown), for which the inhibition at 30 µM is -8.02%.

For the compound `CN1C(=O)C(OC(=O)c2ccc([N+](=O)[O-])cc2)(C(=O)NC(C)(C)C)c2ccccc21` (stereo not shown) [Compound 4f, 3-(tert-Butylcarbamoyl)-1-methyl-2-oxoindolin-3-yl 4-nitro benzoate], the inhibition at 30 µM was 21.5%.

`CN1C(=O)C(OC(=O)/C=C/c2ccccc2)(C(=O)NC(C)(C)C)c2ccccc21` (stereo not shown): the inhibition at 30 µM came out at 7.04%.

In the case of `COc1ccc(C(=O)OC2(C(=O)NC(C)(C)C)C(=O)N(C)c3ccccc32)cc1` (stereo not shown) [Compound 4g, 3-(tert-Butylcarbamoyl)-1-methyl-2-oxoindolin-3-yl 4-methoxy benzoate], the inhibition at 30 µM worked out at 43.5%.

On to `CC(C)(C)NC(=O)C1(OC(=O)c2ccccc2)C(=O)N(Cc2ccccc2)c2ccccc21` (stereo not shown) [Compound 4q, 1-Benzyl-3-(tert-Butylcarbamoyl)-2-oxoindolin-3-yl benzoate], for which the inhibition at 30 µM was found to be 42.9%.

As to `CN1C(=O)C(OC(=O)c2ccccc2)(C(=O)NC(C)(C)C)c2cc(Br)ccc21` (stereo not shown) [Compound 4w, 5-Bromo-3-(tert-Butylcarbamoyl)-1-methyl-2-oxoindolin-3-yl benzoate], the inhibition at 30 µM was determined as 23.4%.

As to `CN1C(=O)C(OC(=O)c2cc3ccccc3[nH]2)(C(=O)NC(C)(C)C)c2ccccc21` (stereo not shown), the inhibition at 30 µM was 9%.

On to `CN1C(=O)C(OC(=O)c2ccco2)(C(=O)NC(C)(C)C)c2ccccc21` (stereo not shown) [Compound 4h, 3-(tert-Butylcarbamoyl)-1-methyl-2-oxoindolin-3-yl furan-2-carboxylate], for which the inhibition at 30 µM stood at 24.1%.

Turning to `CCC(=O)OC1(C(=O)NC(C)(C)C)C(=O)N(C)c2ccccc21` (stereo not shown) [Compound 4o, 3-(tert-Butylcarbamoyl)-1-methyl-2-oxoindolin-3-yl propionate], the inhibition at 30 µM was -1.64%.

For `C=CCN1C(=O)C(OC(=O)c2ccccc2)(C(=O)NC(C)(C)C)c2ccccc21` (stereo not shown) [Compound 4r, 1-Allyl-3-(tert-Butylcarbamoyl)-2-oxoindolin-3-yl benzoate], the inhibition at 30 µM turned out to be 35.4%.

Take `CN1C(=O)C(OC(=O)c2ccccc2)(C(=O)NC(C)(C)C)c2cc(Cl)ccc21` (stereo not shown) [Compound 4v, 3-(tert-Butylcarbamoyl)-5-chloro-1-methyl-2-oxoindolin-3-yl benzoate]: the inhibition at 30 µM came to 9.49%.

For `CN1C(=O)C(OC(=O)c2ccccc2F)(C(=O)NC(C)(C)C)c2ccccc21` (stereo not shown) [Compound 4b, 3-(tert-Butylcarbamoyl)-1-methyl-2-oxoindolin-3-yl 2-fluoro benzoate], the inhibition at 30 µM came to 24.6%.

`CN1C(=O)C(OC(=O)c2ccccn2)(C(=O)NC(C)(C)C)c2ccccc21` (stereo not shown): the inhibition at 30 µM stood at 5.24%.

On to `CN1C(=O)C(OC(=O)c2ccccc2Cl)(C(=O)NC(C)(C)C)c2ccccc21` (stereo not shown) [Compound 4c, 3-(tert-Butylcarbamoyl)-1-methyl-2-oxoindolin-3-yl 2-chloro benzoate], for which the inhibition at 30 µM is 42.7%.

As to `CN1C(=O)C(OC(=O)c2ccccc2Br)(C(=O)NC(C)(C)C)c2ccccc21` (stereo not shown) [Compound 4d, 3-(tert-butylcarbamoyl)-1-methyl-2-oxoindolin-3-yl 2-bromo benzoate], the inhibition at 30 µM is 17.3%.

As to `CN1C(=O)C(OC(=O)c2cccc([N+](=O)[O-])c2)(C(=O)NC(C)(C)C)c2ccccc21` (stereo not shown) [Compound 4e, 3-(tert-Butylcarbamoyl)-1-methyl-2-oxoindolin-3-yl 3-nitro benzoate], the inhibition at 30 µM is -5.24%.

With `CN1C(=O)C(OC(=O)c2ccccc2)(C(=O)NC(C)(C)C)c2ccccc21` (stereo not shown) [Compound 4a, 3-(tert-Butylcarbamoyl)-1-methyl-2-oxoindolin-3-yl benzoate], the inhibition at 30 µM is 18.6%.

On to `CN1C(=O)C(OC(=O)c2ccccc2)(C(=O)NC(C)(C)C)c2cc(F)ccc21` (stereo not shown) [Compound 4u, 3-(tert-Butylcarbamoyl)-5-fluoro-1-methyl-2-oxoindolin-3-yl benzoate], for which the inhibition at 30 µM came out at 5.24%.

On to `CC(=O)OC1(C(=O)NC(C)(C)C)C(=O)N(C)c2ccccc21` (stereo not shown) [Compound 4n, 3-(tert-Butylcarbamoyl)-1-methyl-2-oxoindolin-3-yl acetate], for which the inhibition at 30 µM came to 19.6%.

As to `CC(C)NC(=O)C1(OC(=O)c2ccccc2)C(=O)N(C)c2ccccc21` (stereo not shown), the inhibition at 30 µM is -5.24%.

Take `COc1ccc(CC(=O)OC2(C(=O)NC(C)(C)C)C(=O)N(C)c3ccccc32)cc1` (stereo not shown): the inhibition at 30 µM is 44.2%.

For `CN1C(=O)C(OC(=O)c2cc3ccccc3o2)(C(=O)NC(C)(C)C)c2ccccc21` (stereo not shown), the inhibition at 30 µM was 26.4%.
